Test results: patent US8377470B2, “Non-gelatin soft capsule system” (R.P. Scherer Technologies, LLC, priority 2004, dated 2013)

Experiments:
[1] = Film stability with concentrated salt formulations, starch/gelling carrageenan film; type: physicochemical; settings: concentrated suspension/solution in film depression, open exposure
Description: (§1) The films were formed and spread over a holding device such that small depressions could be formed in the surface of the film. A depression was formed and subsequently filled with the concentrated suspension of the salt formulation. Simultaneously, two acidic solutions were tested by the same protocol. […] This is well-known in the art to be an extremely aggressive mode of stability testing, resulting in acceleration in the interaction between shell and fill of over 260 times normal rates.

[2] = Film stability with concentrated salt formulations, gelatin film; type: physicochemical; settings: concentrated suspension/solution in film depression, open exposure
Description: as §1

[3] = sodium or potassium hydroxide required to solubilize acetaminophen at greater than about 27% by weight; cited from earlier work

| SMILES | Test Result After 24 Hours at 40° C.-75% RH, Starch/Gelling Carrageenan film [1] | Test Result After 24 Hours at 40° C.-75% RH, Gelatin film [2] | pH of the PEG solution [3] |
| --- | --- | --- | --- |
| CC(=O)O.N [Ammonium acetate] | Pass | Fail |  |
| O=C(O)CC(O)(CC(=O)O)C(=O)O [Citric acid] | Fail | Fail |  |
| O=C([O-])c1ccccc1C(=O)O.[K+] [Potassium Hydrogen Phthalate] | Pass | Fail |  |
| O=P([O-])([O-])O.[K+].[K+] [Potassium PO4-(dibasic)] | Pass | Fail |  |
| CC(=O)[O-].[K+] [Potassium acetate] | Pass | Fail |  |
| O=C([O-])CC(O)(CC(=O)[O-])C(=O)[O-].[K+].[K+].[K+] [Potassium citrate] | Pass | Fail |  |
| O=P([O-])([O-])[O-].[Na+].[Na+].[Na+] [Sodium PO4-(tribasic)] | Pass | Fail |  |
| O=C(O)C(O)C(O)C(=O)O (centres unmarked) [Tartaric acid] | Fail | Fail |  |
| CC(=O)Nc1ccc(O)cc1 [acetaminophen, N-acetyl-p-aminophenol] |  |  | greater than 12 |
